The results in this text go back to patent US7550438B2, “Methods for production of growth-promoting proteins and peptides for kidney epithelial cells” (The University of Chicago, priority 1997, dated 2009).

In series [1] the test system is monkey kidney epithelial cells of the BSC-1 line. Description: Growth-promoting (mitogenic) activity: number of cells in BSC-1 cultures counted four days after addition. In kind it is cell-based, African green monkey. The protocol: For the assay, cells were detached from the dish with a solution of trypsin and an aliquot was counted in a hemocytometer.
Nontransformed monkey kidney epithelial cells of the BSC-1 line were grown to confluence in Dulbecco's modified Eagle's medium containing 1% calf serum and […] in 55-mm culture dishes at 38° C. in a CO2 incubator. When cells achieved a density of about 10^6 per dish, the spent medium was removed and replaced with fresh medium containing 0.5% calf serum and the 14-amino acid peptide (0.5 μg/ml). Additions of each of the mitogenic signals at maximal concentration were made to the culture medium. Four days later the number of cells in each culture was counted in a hemocytometer. Values obtained were the mean of 3 separate cultures.
Nontransformed monkey kidney epithelial cells of the BSC-1 line were grown to confluence in Dulbecco's modified Eagle's medium containing 1% calf serum and 1.6 μM biotin at 38° C. in a CO2 incubator. When cells achieved a density of about 10^6 per dish, the spent medium was removed and replaced with fresh medium containing 0.5% calf serum and different amounts of the two peptides. Four days later the number of cells in each culture was counted. Each value is the mean of 3 separate cultures.
To delineate the sequence of the smallest peptide that could stimulate renal cell growth, synthetic peptides of different lengths were prepared (see below), and purified by reversed-phase HPLC on a C18 column.
The peptide of interest was then purified on a reversed-phase C18 column HPLC as described herein using a gradient of 1-80% acetonitrile in 0.1% trifluroacetic acid (TFA). The purified peptide was then lyophilized to remove the acetonitrile and TFA and the lyophilized powder was weighed, dissolved in buffer and added to the culture medium to measure its effect on the growth of monkey kidney epithelial cells as described herein. […] A value termed the K1/2, was used.

In another series the test system is 3T3 fibroblasts. The series can be described thus: Growth of 3T3 fibroblasts. The class given is cell-based, murine.
Series [2] can be described thus: Stability of growth-promoting activity to storage, enzyme, chemicals, heat and solvents. The class given is physicochemical. From the text:
For the assay, cells were detached from the dish with a solution of trypsin and an aliquot was counted in a hemocytometer. […] Thus WGF stimulated cell proliferation by 30% in this assay. When high-density, quiescent cultures (3×10^6 cells/55-mm dish) were used to assay mitogenic activity by measuring [^3H]thymidine incorporation into DNA, WGF enhanced DNA synthesis about 60%. To prepare WGF, cells can be scrape-wounded every other day, yet maximal activity will be released into the conditioned medium. WGF is mitogenic for both sparse and confluent cultures of BSC-1 cells, and is stable upon storage at 4° C. to −40° C. for many weeks.
WGF activity was also stable in 0.1% trifluoroacetic acid (TFA) (J. T. Baker, HPLC grade) and isopropanol.

In a further series the test system is BSC-1 cells. The series can be described thus: Appearance or release of WGF growth-promoting activity from BSC-1 cells (scrape wounding, heparinase). The class given is cell-based, African green monkey. Particulars: confluent monolayer treated with the enzyme. The protocol: None of these agents inhibited cell growth when added to cells of nonwounded cultures. When added to the medium after the appearance of WGF mitogenic activity, neither PMSF nor aprotinin appeared to inhibit the increment in cell proliferation.
Confluent monolayer cultures were mechanically scraped using a 200 μL pipet tip (Continental Laboratory Products, San Diego, Calif.). […] (This process of scraping the cells has been termed “wounding” and has been used for many years as a model system to study repair of corneal abrasions of the eye. In effect, pressure is applied to cells sufficient to disrupt intercellular adhesion). To determine whether kidney epithelial cells released an autocrine growth factor into the medium after wounding, conditioned culture medium was removed from the culture dish after scrape-wounding a monolayer of BSC-1 cells. An aliquot was assayed for any growth-promoting activity on a nonwounded “detector” culture (1.2×10^6 cells per […]).
Treatment of a confluent monolayer of BSC-1 cells with the enzyme heparinase I (Sigma), but not heparinase III (Sigma), releases WGF mitogenic activity from cells into the culture media. However, this seems to deplete WGF, at least temporarily. When cells are first treated with heparinase I, rinsed, the media aspirated, and the monolayer is then scrape-wounded, no growth-promoting activity is detected in the conditioned media.

Regarding AQPYPQGNHEA, in series [1] (maximal concentrations, 11-mer with wound conditioned buffer), the “combined mitogenic effect with WGF (additivity)” value is “not additive”. In addition, the “mitogenic activity on BSC-1 cells (in words)” value in series [1] (peptide 0.5 to 20 μg/ml, four days) is “to the same extent as did purified WGF protein”. In series [1] (peptide alone, BSC-1 cells, 4 days in culture, read-out: Growth-Stimulation K½), the EC50 came out at 260 nM. For the same molecule, in the series with 3T3 fibroblasts, the “mitogenic activity on 3T3 fibroblasts” value was “did not stimulate growth”.
Regarding “basic fibroblast growth factor [basic FGF, reference compound]”, the “concentration equivalent in mitogenic potency to partially-purified WGF” value in series [1] is 0.02 ng/mL. Also, in series [1] (agent alone at maximal mitogenic concentration (14-Ser 0.5 μg/ml; EGF, IGF-I 50 ng/ml; acidic FGF 100 pg/ml; basic FGF 1,000 pg/ml; vasopressin 75 pg/ml; K 10.4 mM; Na 180 mM)), the “stimulation of growth (increase in cell number compared to control at four days)” value is reported as 18%. The “stimulation of growth in the presence of the 14-Ser peptide” value in series [1] (mitogenic signal at maximal concentration plus 14-Ser peptide 0.5 μg/ml, four days) came out at 41%. Also, the “inhibition of mitogenic activity by 55% acetonitrile/0.1% (TFA)” value in series [2] came out at 90%.

B1: heparinase III: enzyme heparinase III (Sigma) (protein, UniProt Q59289 25-659, looked up)
Heparin-sulfate lyase: QSSSITRKDFDHINLEYSGLEKVNKAVAAGNYDDAAKALLAYYREKSKAREPDFSNAEKPADIRQPIDKVTREMADKALVHQFQPHKGYGYFDYGKDINWQMWPVKDNEVRWQLHRVKWWQAMALVYHATGDEKYAREWVYQYSDWARKNPLGLSQDNDKFVWRPLEVSDRVQSLPPTFSLFVNSPAFTPAFLMEFLNSYHQQADYLSTHYAEQGNHRLFEAQRNLFAGVSFPEFKDSPRWRQTGISVLNTEIKKQVYADGMQFELSPIYHVAAIDIFLKAYGSAKRVNLEKEFPQSYVQTVENMIMALISISLPDYNTPMFGDSWITDKNFRMAQFASWARVFPANQAIKYFATDGKQGKAPNFLSKALSNAGFYTFRSGWDKNATVMVLKASPPGEFHAQPDNGTFELFIKGRNFTPDAGVFVYSGDEAIMKLRNWYRQTRIHSTLTLDNQNMVITKARQNKWETGNNLDVLTYTNPSYPNLDHQRSVLFINKKYFLVIDRAIGEATGNLGVHWQLKEDSNPVFDKTKNRVYTTYRDGNNLMIQSLNADRTSLNEEEGKVSYVYNKELKRPAFVFEKPKKNAGTQNFVSIVYPYDGQKAPEISIRENKGNDFEKGKLNLTLTINGKQQLVLVP
B1: the “release of WGF mitogenic activity from cells into the culture media” value in the series with BSC-1 cells is listed as “not”.

B2: heparinase I: enzyme heparinase I (Sigma) (protein, UniProt Q05819 22-384, looked up)
Heparin lyase I: QQKKSGNIPYRVNVQADSAKQKAIIDNKWVAVGINKPYALQYDDKLRFNGKPSYRFELKAEDNSLEGYAAGETKGRTELSYSYATTNDFKKFPPSVYQNAQKLKTVYHYGKGICEQGSSRSYTFSVYIPSSFPDNATTIFAQWHGAPSRTLVATPEGEIKTLSIEEFLALYDRMIFKKNIAHDKVEKKDKDGKITYVAGKPNGWKVEQGGYPTLAFGFSKGYFYIKANSDRQWLTDKADRNNANPENSEVMKPYSSEYKTSTIAYKMPFAQFPKDCWITFDVAIDWTKYGKEANTILKPGKLDVMMTYTKNKKPQKAHIVNQQEILIGRNDDDGYYFKFGIYRVGNSTVPVTYNLSGYSETAR
On to B2, for which, in the series with BSC-1 cells, the “release of WGF mitogenic activity from cells into the culture media” value was “releases”.
